In article PMC7644958, “Estimates of RelSeq, Mesh1, and SAHMex Hydrolysis of (p)ppGpp and (p)ppApp by Thin Layer Chromatography and NADP/NADH Coupled Assays” (Frontiers in Microbiology, 2020):

Molecular target: T1, MESH1 (Homo sapiens, UniProt Q8N4P3)
T1 construct: gene HDDC3; pET28 derivative, expressed in E. coli BL21(lambda DE3); His-tag removed with thrombin
Experiment: TLC hydrolysis assay (PEI-cellulose)
Format: biochemical
Details: 5 mM substrate, pH 8.0, 37°C, 250 mM NaCl, 14 mM MgCl2, 6.5 mM MnCl2

T1 sequence (Q8N4P3 whole entry): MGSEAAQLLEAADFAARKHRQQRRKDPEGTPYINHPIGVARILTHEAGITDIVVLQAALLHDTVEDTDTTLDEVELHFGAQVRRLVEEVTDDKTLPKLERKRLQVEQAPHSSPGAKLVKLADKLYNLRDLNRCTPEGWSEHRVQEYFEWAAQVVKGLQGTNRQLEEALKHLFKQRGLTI

| Compound | TLC hydrolysis assay (PEI-cellulose) |
| --- | --- |
| Nc1ncnc2c1ncn2[C@@H]1O[C@H](COP(=O)(O)OP(=O)(O)OP(=O)(O)O)[C@@H](OP(=O)(O)OP(=O)(O)O)[C@H]1O [pppApp] | The human MESH1 hydrolase displays similar activities as shown for Drosophila Mesh1 |
| Nc1ncnc2c1ncn2[C@@H]1O[C@H](COP(=O)(O)OP(=O)(O)O)[C@@H](OP(=O)(O)OP(=O)(O)O)[C@H]1O [ppApp] | The human MESH1 hydrolase displays similar activities as shown for Drosophila Mesh1 |
